# Test results taken from patent publication US20080107623A1, “Inhibitors of Hepatitis C Virus” (Bristol-Myers Squibb Company, priority 2006, published 2008).
# Molecular target: T1, HCV NS3/4A protease complex, J4L6S strain (Hepatitis C virus genotype 1b, UniProt O92972, C1454S/C1711G)
# T1 construct: recombinant HCV NS3/4A protease complex (amino acids 1027 to 1711) for these strains; made in house; host or cells: Escherichia coli BL21 (DE3), pET21b
# Experiment: FRET peptide assay to monitor HCV NS3/4A proteolytic activity (J4L6S strain)
# Assay type: biochemical, HCV genotype 1b
# Settings: read-out: IC50 against NS3/4A J4L6S strain
# Text: HCV NS3 protease complexes, derived from the BMS strain, H77 strain or J4L6S strain, were generated, as described below. These purified recombinant proteins were generated for use in a homogeneous assay (see below) to provide an indication of how effective compounds of the present disclosure would be in inhibiting HCV NS3 proteolytic activity.
# The H77 and J4L6S strains were used for production of recombinant NS3/4A protease complexes. DNA encoding the recombinant HCV NS3/4A protease complex (amino acids 1027 to 1711) for these strains were manipulated as described by P. Gallinari et al. (see Gallinari P, Paolini C, Brennan D, Nardi C, Steinkuhler C, De Francesco R. Biochemistry. 38(17):5620-32, (1999)). Briefly, a three-lysine solubilizing tail was added at the 3′-end of the NS4A coding region. The cysteine in the P1 position of the NS4A-NS4B cleavage site (amino acid 1711) was changed to a glycine to avoid the proteolytic cleavage of the lysine tag. Furthermore, a cysteine to serine mutation was introduced by PCR at amino acid position 1454 to prevent the autolytic cleavage in the NS3 helicase domain. […]
# T1 sequence (O92972 1027-1711 C1454S/C1711G, one chain of several): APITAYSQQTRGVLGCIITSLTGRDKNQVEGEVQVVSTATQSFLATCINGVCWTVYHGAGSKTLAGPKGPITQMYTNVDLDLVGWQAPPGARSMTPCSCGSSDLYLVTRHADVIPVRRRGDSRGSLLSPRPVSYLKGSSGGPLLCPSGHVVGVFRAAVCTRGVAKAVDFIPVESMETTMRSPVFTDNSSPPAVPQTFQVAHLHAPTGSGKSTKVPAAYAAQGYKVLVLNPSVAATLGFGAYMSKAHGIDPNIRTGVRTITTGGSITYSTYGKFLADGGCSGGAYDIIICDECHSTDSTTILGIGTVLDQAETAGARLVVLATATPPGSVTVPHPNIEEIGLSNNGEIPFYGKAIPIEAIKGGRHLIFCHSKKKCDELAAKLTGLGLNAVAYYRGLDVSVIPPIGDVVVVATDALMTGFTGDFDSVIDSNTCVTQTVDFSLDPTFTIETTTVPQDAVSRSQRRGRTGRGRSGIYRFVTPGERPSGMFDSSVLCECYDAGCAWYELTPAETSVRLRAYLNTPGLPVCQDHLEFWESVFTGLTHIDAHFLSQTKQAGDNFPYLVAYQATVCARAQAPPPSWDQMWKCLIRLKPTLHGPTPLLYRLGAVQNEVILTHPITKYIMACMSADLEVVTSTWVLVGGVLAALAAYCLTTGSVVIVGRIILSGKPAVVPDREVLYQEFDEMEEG
compound,measurement,value
COc1c(O[C@@H]2C[C@H]3C(=O)N[C@]4(C(=O)NS(=O)(=O)C5CC5)C[C@H]4/C=C\CCCCC[C@H](NC(=O)OC(C)(C)C)C(=O)N3C2)ccc2c(Cl)nccc12 [Compound 3],IC50,0.47 nM
